Marks after values point to notes of the source that are not given here.
Test: amounts of β-lactam antibiotic, β-lactamase inhibitor (C18 reverse-phase LC, UV-VIS) and aminoglycoside (HPLC-ELSD) in solution over time
Type: physicochemical

CC1(C)[C@H](C(=O)O)N2C(=O)C[C@H]2S1(=O)=O [Sulbactam sodium]
amount of component as percentage with respect to the amount at the initial time (Example 4: cefoperazone sodium 4 g, sulbactam sodium 0.5 g, gentamicin 80 mg, citrate pH 6.75, 200 mL water, room temperature, Time 0 h): 101.4% | amount of component as percentage with respect to the amount at the initial time (Example 4: cefoperazone sodium 4 g, sulbactam sodium 0.5 g, gentamicin 80 mg, citrate pH 6.75, 200 mL water, room temperature, Time 1 h): 101.4% | amount of component as percentage with respect to the amount at the initial time (Example 4: cefoperazone sodium 4 g, sulbactam sodium 0.5 g, gentamicin 80 mg, citrate pH 6.75, 200 mL water, room temperature, Time 2 h): 101.5% | amount of component as percentage with respect to the amount at the initial time (Example 4: cefoperazone sodium 4 g, sulbactam sodium 0.5 g, gentamicin 80 mg, citrate pH 6.75, 200 mL water, room temperature, Time 4 h): 109.7% | amount of component as percentage with respect to the amount at the initial time (Example 4: cefoperazone sodium 4 g, sulbactam sodium 0.5 g, gentamicin 80 mg, citrate pH 6.75, 200 mL water, room temperature, Time 6 h): 103.2% | amount of component as percentage with respect to the amount at the initial time (Example 5: freeze-dried cefoperazone sodium 4 g, sulbactam sodium 0.5 g, citrate pH 6.75, + amikacin sulfate 500 mg, 7 days 0° C., dissolved in 100 mL water, Time 0 h): 101.4% | amount of component as percentage with respect to the amount at the initial time (Example 5: freeze-dried cefoperazone sodium 4 g, sulbactam sodium 0.5 g, citrate pH 6.75, + amikacin sulfate 500 mg, 7 days 0° C., dissolved in 100 mL water, Time 1 h): 101.4% | amount of component as percentage with respect to the amount at the initial time (Example 5: freeze-dried cefoperazone sodium 4 g, sulbactam sodium 0.5 g, citrate pH 6.75, + amikacin sulfate 500 mg, 7 days 0° C., dissolved in 100 mL water, Time 2 h): 101.5% | amount of component as percentage with respect to the amount at the initial time (Example 5: freeze-dried cefoperazone sodium 4 g, sulbactam sodium 0.5 g, citrate pH 6.75, + amikacin sulfate 500 mg, 7 days 0° C., dissolved in 100 mL water, Time 4 h): 109.7% | amount of component as percentage with respect to the amount at the initial time (Example 5: freeze-dried cefoperazone sodium 4 g, sulbactam sodium 0.5 g, citrate pH 6.75, + amikacin sulfate 500 mg, 7 days 0° C., dissolved in 100 mL water, Time 6 h): 103.2% | amount of component as percentage with respect to the amount at the initial time (Example 6: freeze-dried cefoperazone sodium 4 g, sulbactam sodium 1 g, citrate pH 6.75, + etimicin sulfate 200 mg, 7 days 0° C., dissolved in 100 mL water, Time 0 h): 99.62% | amount of component as percentage with respect to the amount at the initial time (Example 6: freeze-dried cefoperazone sodium 4 g, sulbactam sodium 1 g, citrate pH 6.75, + etimicin sulfate 200 mg, 7 days 0° C., dissolved in 100 mL water, Time 1 h): 100.4% | amount of component as percentage with respect to the amount at the initial time (Example 6: freeze-dried cefoperazone sodium 4 g, sulbactam sodium 1 g, citrate pH 6.75, + etimicin sulfate 200 mg, 7 days 0° C., dissolved in 100 mL water, Time 2 h): 100.2% | amount of component as percentage with respect to the amount at the initial time (Example 6: freeze-dried cefoperazone sodium 4 g, sulbactam sodium 1 g, citrate pH 6.75, + etimicin sulfate 200 mg, 7 days 0° C., dissolved in 100 mL water, Time 4 h): 100.2% | amount of component as percentage with respect to the amount at the initial time (Example 7: ceftriaxone sodium 4 g, sulbactam sodium 1 g, gentamicin sulfate 80 mg, citrate pH 6.75, 200 mL water, room temperature (22° C.), Time 0 h): 96.84% | amount of component as percentage with respect to the amount at the initial time (Example 7: ceftriaxone sodium 4 g, sulbactam sodium 1 g, gentamicin sulfate 80 mg, citrate pH 6.75, 200 mL water, room temperature (22° C.), Time 1 h): 94.43% | amount of component as percentage with respect to the amount at the initial time (Example 7: ceftriaxone sodium 4 g, sulbactam sodium 1 g, gentamicin sulfate 80 mg, citrate pH 6.75, 200 mL water, room temperature (22° C.), Time 2 h): 93.35% | amount of component as percentage with respect to the amount at the initial time (Example 7: ceftriaxone sodium 4 g, sulbactam sodium 1 g, gentamicin sulfate 80 mg, citrate pH 6.75, 200 mL water, room temperature (22° C.), Time 4 h): 93.23% | amount of component as percentage with respect to the amount at the initial time (Example 7: ceftriaxone sodium 4 g, sulbactam sodium 1 g, gentamicin sulfate 80 mg, citrate pH 6.75, 200 mL water, room temperature (22° C.), Time 6 h): 92.13% | amount of component as percentage with respect to the amount at the initial time (Example 7: ceftriaxone sodium 4 g, sulbactam sodium 1 g, gentamicin sulfate 80 mg, citrate pH 6.75, 200 mL water, room temperature (22° C.), Time 8 h): 93.38% | amount of component as percentage with respect to the amount at the initial time (Example 10: mezlocillin sodium 2 g, sulbactam sodium 0.5 g, etimicin sulfate 200 mg, citrate pH 6.5, 200 mL water, room temperature, Time 0 h): 98.07% | amount of component as percentage with respect to the amount at the initial time (Example 10: mezlocillin sodium 2 g, sulbactam sodium 0.5 g, etimicin sulfate 200 mg, citrate pH 6.5, 200 mL water, room temperature, Time 1 h): 98.13% | amount of component as percentage with respect to the amount at the initial time (Example 10: mezlocillin sodium 2 g, sulbactam sodium 0.5 g, etimicin sulfate 200 mg, citrate pH 6.5, 200 mL water, room temperature, Time 2 h): 72.96% | amount of component as percentage with respect to the amount at the initial time (Example 10: mezlocillin sodium 2 g, sulbactam sodium 0.5 g, etimicin sulfate 200 mg, citrate pH 6.5, 200 mL water, room temperature, Time 4 h): 95.16% | amount of component as percentage with respect to the amount at the initial time (Example 10: mezlocillin sodium 2 g, sulbactam sodium 0.5 g, etimicin sulfate 200 mg, citrate pH 6.5, 200 mL water, room temperature, Time 6 h): 99.65% | amount of component as percentage with respect to the amount at the initial time (Example 10: mezlocillin sodium 2 g, sulbactam sodium 0.5 g, etimicin sulfate 200 mg, citrate pH 6.5, 200 mL water, room temperature, Time 8 h): 104.9% | amount of component as percentage with respect to the amount at the initial time (Example 11: freeze-dried mezlocillin sodium, sulbactam sodium, citrate pH 6.5, 7 days 0° C., in 100 mL 5% fructose + etimicin sulfate 200 mg, Time 0 h): 114.3% | amount of component as percentage with respect to the amount at the initial time (Example 11: freeze-dried mezlocillin sodium, sulbactam sodium, citrate pH 6.5, 7 days 0° C., in 100 mL 5% fructose + etimicin sulfate 200 mg, Time 1 h): 95.83% | amount of component as percentage with respect to the amount at the initial time (Example 11: freeze-dried mezlocillin sodium, sulbactam sodium, citrate pH 6.5, 7 days 0° C., in 100 mL 5% fructose + etimicin sulfate 200 mg, Time 2 h): 93.75% | amount of component as percentage with respect to the amount at the initial time (Example 11: freeze-dried mezlocillin sodium, sulbactam sodium, citrate pH 6.5, 7 days 0° C., in 100 mL 5% fructose + etimicin sulfate 200 mg, Time 4 h): 93.78% | amount of component as percentage with respect to the amount at the initial time (Example 11: freeze-dried mezlocillin sodium, sulbactam sodium, citrate pH 6.5, 7 days 0° C., in 100 mL 5% fructose + etimicin sulfate 200 mg, Time 6 h): 95.65% | amount of component as percentage with respect to the amount at the initial time (Example 11: freeze-dried mezlocillin sodium, sulbactam sodium, citrate pH 6.5, 7 days 0° C., in 100 mL 5% fructose + etimicin sulfate 200 mg, Time 8 h): 101.0% | amount of component as percentage with respect to the amount at the initial time (Example 14: freeze-dried cefoperazone sodium 4 g, sulbactam sodium 2 g, citrate pH 6.75, 7 days 0° C., in 100 mL water, 10 mL + gentamicin sulfate 16 mg, room temperature, Time 0 h): 92.44% | amount of component as percentage with respect to the amount at the initial time (Example 14: freeze-dried cefoperazone sodium 4 g, sulbactam sodium 2 g, citrate pH 6.75, 7 days 0° C., in 100 mL water, 10 mL + gentamicin sulfate 16 mg, room temperature, Time 1 h): 91.27% | amount of component as percentage with respect to the amount at the initial time (Example 14: freeze-dried cefoperazone sodium 4 g, sulbactam sodium 2 g, citrate pH 6.75, 7 days 0° C., in 100 mL water, 10 mL + gentamicin sulfate 16 mg, room temperature, Time 2 h): 90.78% | amount of component as percentage with respect to the amount at the initial time (Example 14: freeze-dried cefoperazone sodium 4 g, sulbactam sodium 2 g, citrate pH 6.75, 7 days 0° C., in 100 mL water, 10 mL + gentamicin sulfate 16 mg, room temperature, Time 4 h): 88.38* % | amount of component as percentage with respect to the amount at the initial time (Example 14: freeze-dried cefoperazone sodium 4 g, sulbactam sodium 2 g, citrate pH 6.75, 7 days 0° C., in 100 mL water, 10 mL + gentamicin sulfate 16 mg, room temperature, Time 6 h): 86.86* % | amount of component as percentage with respect to the amount at the initial time (Example 15: freeze-dried cefoperazone sodium 4 g, sulbactam sodium 4 g, citrate pH 6.75, 7 days 0° C., in 100 mL water, 10 mL + gentamicin sulfate 16 mg, room temperature, Time 0 h): 99.50% | amount of component as percentage with respect to the amount at the initial time (Example 15: freeze-dried cefoperazone sodium 4 g, sulbactam sodium 4 g, citrate pH 6.75, 7 days 0° C., in 100 mL water, 10 mL + gentamicin sulfate 16 mg, room temperature, Time 1 h): 96.28% | amount of component as percentage with respect to the amount at the initial time (Example 15: freeze-dried cefoperazone sodium 4 g, sulbactam sodium 4 g, citrate pH 6.75, 7 days 0° C., in 100 mL water, 10 mL + gentamicin sulfate 16 mg, room temperature, Time 2 h): 102.5% | amount of component as percentage with respect to the amount at the initial time (Example 15: freeze-dried cefoperazone sodium 4 g, sulbactam sodium 4 g, citrate pH 6.75, 7 days 0° C., in 100 mL water, 10 mL + gentamicin sulfate 16 mg, room temperature, Time 4 h): 95.78* % | amount of component as percentage with respect to the amount at the initial time (Example 15: freeze-dried cefoperazone sodium 4 g, sulbactam sodium 4 g, citrate pH 6.75, 7 days 0° C., in 100 mL water, 10 mL + gentamicin sulfate 16 mg, room temperature, Time 6 h): 70.74* % | amount of component as percentage with respect to the amount at the initial time (Example 17: freeze-dried cefoperazone sodium 4 g, sulbactam sodium 1 g, citrate pH 6.75, 7 days 0° C., in 100 mL water, 10 mL + amikacin sulfate 40 mg, room temperature, Time 0 h): 105.6% | amount of component as percentage with respect to the amount at the initial time (Example 17: freeze-dried cefoperazone sodium 4 g, sulbactam sodium 1 g, citrate pH 6.75, 7 days 0° C., in 100 mL water, 10 mL + amikacin sulfate 40 mg, room temperature, Time 1 h): 112.2% | amount of component as percentage with respect to the amount at the initial time (Example 17: freeze-dried cefoperazone sodium 4 g, sulbactam sodium 1 g, citrate pH 6.75, 7 days 0° C., in 100 mL water, 10 mL + amikacin sulfate 40 mg, room temperature, Time 2 h): 112.6% | amount of component as percentage with respect to the amount at the initial time (Example 17: freeze-dried cefoperazone sodium 4 g, sulbactam sodium 1 g, citrate pH 6.75, 7 days 0° C., in 100 mL water, 10 mL + amikacin sulfate 40 mg, room temperature, Time 4 h): 118.5% | amount of component as percentage with respect to the amount at the initial time (Example 17: freeze-dried cefoperazone sodium 4 g, sulbactam sodium 1 g, citrate pH 6.75, 7 days 0° C., in 100 mL water, 10 mL + amikacin sulfate 40 mg, room temperature, Time 6 h): 123.3% | amount of component as percentage with respect to the amount at the initial time (Example 17: freeze-dried cefoperazone sodium 4 g, sulbactam sodium 1 g, citrate pH 6.75, 7 days 0° C., in 100 mL water, 10 mL + amikacin sulfate 40 mg, room temperature, Time 8 h): 127.1% | amount of component as percentage with respect to the amount at the initial time (Example 19: ceftriaxone sodium 2 g, sulbactam sodium 2 g, gentamicin sulfate 160 mg, citrate pH 6.75, 200 mL water, room temperature, Time 0 h): 96.84% | amount of component as percentage with respect to the amount at the initial time (Example 19: ceftriaxone sodium 2 g, sulbactam sodium 2 g, gentamicin sulfate 160 mg, citrate pH 6.75, 200 mL water, room temperature, Time 1 h): 94.43% | amount of component as percentage with respect to the amount at the initial time (Example 19: ceftriaxone sodium 2 g, sulbactam sodium 2 g, gentamicin sulfate 160 mg, citrate pH 6.75, 200 mL water, room temperature, Time 2 h): 93.35% | amount of component as percentage with respect to the amount at the initial time (Example 19: ceftriaxone sodium 2 g, sulbactam sodium 2 g, gentamicin sulfate 160 mg, citrate pH 6.75, 200 mL water, room temperature, Time 4 h): 93.23% | amount of component as percentage with respect to the amount at the initial time (Example 19: ceftriaxone sodium 2 g, sulbactam sodium 2 g, gentamicin sulfate 160 mg, citrate pH 6.75, 200 mL water, room temperature, Time 6 h): 92.13% | amount of component as percentage with respect to the amount at the initial time (Example 19: ceftriaxone sodium 2 g, sulbactam sodium 2 g, gentamicin sulfate 160 mg, citrate pH 6.75, 200 mL water, room temperature, Time 8 h): 93.38%

Source: US20090156518A1, “STABLE PHARMACEUTICAL COMPOSITION COMPRISING BETA-LACTAM ANTIBIOTIC AND BUFFER” (priority 2006, published 2009)
